These compounds were tested on SK-BR-3 cancer cells (assay: Inhibitory activity against proliferation of SK-BR-3 cancer cells (CellTiter-Glo)). Conditions: Homo sapiens, SK-BR-3, 120 h, ErbB2-overexpressing SK-BR-3 cells, 120 hours after treatment.
Format: cell-based
Summary of the method: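 Cells seeded 48 h before dosing (SK-BR-3 in McCOY'S 5A + 10% FBS; BT-474 in RPMI-1640 + 20% FBS), then exposed 120 h to 12 concentrations, 0.2 nM-5 μM final. Viability by CellTiter-Glo luminescence; GI50 from growth rate vs control, triplicate runs.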
Work on C=CC(=O)Nc1cc(Nc2cc(N3OCC[C@@H]3c3cc(F)cc(-c4cccc(F)c4)c3)ncn2)c(OC)cc1N1CCC(N2CCN(C3CC3)CC2)CC1 [Example compound 131, (R)-N-(2-(4-(4-cyclopropylpiperazin-1-yl)piperidin-1-yl)-5-((6-(3-(3′,5-difluoro-[1,1′-biphenyl]-3-yl)isoxazolidin-2-yl)pyrimidin-4-yl)amino)-4-methoxyphenyl)acrylamide] yielded a GI50 of under 0.05 µM.
C=CC(=O)Nc1cc(Nc2cc(N3OCCC3c3cc(F)cc(OCc4nccs4)c3)ncn2)c(OC)cc1N1CCN(C)CC1 (stereo not drawn) [Example compound 132, N-(5-((6-(3-(3-fluoro-5-(thiazol-2-ylmethoxy)phenyl)isoxazolidin-2-yl)pyrimidin-4-yl)amino)-4-methoxy-2-(4-methylpiperazin-1-yl)phenyl)acrylamide] was tested, and the GI50 was under 0.05 µM.
Work on C=CC(=O)Nc1cc(Nc2cc(N3OCC[C@@H]3c3cc(F)cc(-c4ccco4)c3)ncn2)c(OC)cc1N1CCN(C)CC1 [Example compound 133, (R)-N-(5-((6-(3-(3-fluoro-5-(furan-2-yl)phenyl)isoxazolidin-2-yl)pyrimidin-4-yl)amino)-4-methoxy-2-(4-methylpiperazin-1-yl)phenyl)acrylamide] yielded a GI50 of under 0.05 µM.
C=CC(=O)Nc1cc(Nc2cc(N3OCC[C@@H]3c3cc(F)cc(-c4ccco4)c3)ncn2)c(OC)cc1N1CCC(N2CCN(C3CC3)CC2)CC1 [Example compound 134, (R)-N-(2-(4-(4-cyclopropylpiperazin-1-yl)piperidin-1-yl)-5-((6-(3-(3-fluoro-5-(furan-2-yl)phenyl)isoxazolidin-2-yl)pyrimidin-4-yl)amino)-4-methoxyphenyl)acrylamide] was tested, and the GI50 was under 0.05 µM.
With C=CC(=O)Nc1cc(Nc2cc(N3OCCC3c3cccc(C#Cc4ccccc4)c3)ncn2)c(OC)cc1N1CCN(C)CC1 (stereo not drawn) [Example compound 137, N-(4-methoxy-2-(4-methylpiperazin-1-yl)-5-((6-(3-(3-(phenylethynyl)phenyl)isoxazolidin-2-yl)pyrimidin-4-yl)amino)phenyl)acrylamide] the GI50 was 0.05 to 0.5 µM.
C=CC(=O)Nc1cc(Nc2cc(N3OCCC3c3cccc(C#Cc4ccccc4)c3)ncn2)c(OC)cc1N1CCC(N2CCN(C3CC3)CC2)CC1 (stereo not drawn) [Example compound 138, N-(2-(4-(4-cyclopropylpiperazin-1-yl)piperidin-1-yl)-4-methoxy-5-((6-(3-(3-(phenylethynyl)phenyl)isoxazolidin-2-yl)pyrimidin-4-yl)amino)phenyl)acrylamide] was tested, and the GI50 was 0.05 to 0.5 µM.
In the case of C=CC(=O)Nc1cc(Nc2cc(N3OCCC3c3cccc(C#CC(C)(C)C)c3)ncn2)c(OC)cc1N1CCN(C)CC1 (stereo not drawn) [Example compound 139, N-(5-((6-(3-(3-(3,3-dimethylbut-1-yn-1-yl)phenyl)isoxazolidin-2-yl)pyrimidin-4-yl)amino)-4-methoxy-2-(4-methylpiperazin-1-yl)phenyl)acrylamide], the GI50 is reported as 0.05 to 0.5 µM.
For C=CC(=O)Nc1cc(Nc2cc(N3OCCC3c3cccc(C#CC(C)(C)C)c3)ncn2)c(OC)cc1N1CCC(N2CCN(C3CC3)CC2)CC1 (stereo not drawn) [Example compound 140, N-(2-(4-(4-cyclopropylpiperazin-1-yl)piperidin-1-yl)-5-((6-(3-(3-(3,3-dimethylbut-1-yn-1-yl)phenyl)isoxazolidin-2-yl)pyrimidin-4-yl)amino)-4-methoxyphenyl)acrylamide], the GI50 was 0.05 to 0.5 µM.
C=CC(=O)Nc1cc(Nc2cc(N3OCC[C@@H]3c3ccc(F)c(Oc4cccc(F)c4)c3)ncn2)c(OC)cc1N1CCC(N2CCN(C3CC3)CC2)CC1 [Example compound 152, (R)-N-(2-(4-(4-cyclopropylpiperazin-1-yl)piperidin-1-yl)-5-((6-(3-(4-fluoro-3-(3-fluorophenoxy)phenyl)isoxazolidin-2-yl)pyrimidin-4-yl)amino)-4-methoxyphenyl)acrylamide] was tested, and the GI50 was under 0.05 µM.
C=CC(=O)Nc1cc(Nc2cc(N3OCC[C@@H]3c3ccc(F)c(Oc4cccc(F)c4)c3)ncn2)c(OC)cc1N1CCN(C)CC1 [Example compound 153, (R)-N-(5-((6-(3-(4-fluoro-3-(3-fluorophenoxy)phenyl)isoxazolidin-2-yl)pyrimidin-4-yl)amino)-4-methoxy-2-(4-methylpiperazin-1-yl)phenyl)acrylamide] gave a GI50 of 0.05 to 0.5 µM.

The compounds below were run on BT-474 cancer cells (assay: Inhibitory activity against proliferation of BT-474 cancer cells (CellTiter-Glo)). Conditions: Homo sapiens, BT-474 ErbB2-overexpressing cancer cells, 120 hours after treatment.
Format: cell-based
Protocol: To evaluate the inhibitory activity of a compound according to the present invention against the proliferation of ErbB2-overexpressing cancer cells, the following experiment were performed.
10% FBS-added McCOY'S 5A was used for SK-BR-3 cancer cells. 20% FBS-added RPMI-1640 was used for BT-474 cancer cells. Transduced Ba/F3 cells were cultured in a RPMI-1640 medium to which 1 μg/ml puromycin (Invitrogen) was added.
48 hours before compound treatment, each type of the SK-BR-3 and BT-474 cells were seeded at 5,000 cells/well in a white clear bottom 96 well plate (Corning). The compound was diluted in dimethyl sulfoxide (SK-BR-3: 3-fold dilution, a total of 12 concentrations, BT-474: […], a total of 12 concentrations) and injected at 1 μl to have the final concentration of 0.2 nM to 5 μM. As for measurement of live cells, 120 hours after treatment with the compound, a CellTiter-Glo luminescent cell-viability reagent (Promega) was used to store the cells at room temperature for 10 minutes, followed by measurement of luminescence using a reader (SynergyNeo, Biotek). Each test was repeated three times.
The result values were calculated as a cell growth rate (%) compared to the control group. A graph was plotted using the GraphPad Prism version 8.3.0 program, and GI50 values were calculated.
Work on C=CC(=O)Nc1cc(Nc2cc(N3OCC[C@@H]3c3cc(F)cc(-c4cccc(F)c4)c3)ncn2)c(OC)cc1N1CCC(N2CCN(C3CC3)CC2)CC1 [Example 248, (R)-N-(2-(4-(4-cyclopropylpiper-azin-1-yl)piperidin-1-yl)-5-((6-(3-(3′,5-difluoro-[1,1′-biphenyl]-3-yl)-isoxazolidin-2-yl)-pyrimidin-4-yl)-amino)-4-methoxy-phenyl)acrylamide] yielded a GI50 of under 0.05 µM.
Compound C=CC(=O)Nc1cc(Nc2cc(N3OCC[C@@H]3c3cccc(-c4cccc(C(N)=O)c4)c3)ncn2)c(OC)cc1N1CCN(C)CC1 [Example 325, (R)-3′-(2-(6-((5-acrylamido-2-methoxy-4-(4-methylpiperazin-1-yl)phenyl)-amino)pyrimidin-4-yl)isoxazolidin-3-yl)-[1,1′-biphen-yl]-3-carboxamide] has a GI50 of under 0.05 µM.
C=CC(=O)Nc1cc(Nc2cc(N3OCC[C@@H]3c3cccc(-c4cccc(F)c4F)c3)ncn2)c(OC)cc1N1CCN(C)[C@@H](C)C1 [Example 326, N-(5-((6-((R)-3-(2′,3′-difluoro-[1,1′-biphenyl]-3-yl)isoxazolidin-2-yl)pyrimidin-4-yl)amino)-2-((S)-3,4-dimethylpiper-azin-1-yl)-4-meth-oxyphenyl)acryl-amide] was tested, and the GI50 was under 0.05 µM.
C=CC(=O)Nc1cc(Nc2cc(N3OCC[C@@H]3c3cccc(-c4ccc(F)cc4F)c3)ncn2)c(OC)cc1N1CCN(C)[C@@H](C)C1 [Example 327, N-(5-((6-((R)-3-(2′,4′-difluoro-[1,1′-biphenyl]-3-yl)-isoxazolidin-2-yl)-pyrimidin-4-yl)-amino)-2-((S)-3,4-dimethylpiperazin-1-yl)-4-methoxy-phenyl)acrylamide] showed a GI50 of under 0.05 µM.
C=CC(=O)Nc1cc(Nc2cc(N3OCC[C@@H]3c3cccc(-c4cccc(F)c4)c3)ncn2)c(OC)cc1N1C[C@@H](C)N(C(=O)OC(C)(C)C)[C@@H](C)C1 [Example 328, tert-butyl (2S,6R)-4-(2-acrylamido-4-((6-((R)-3-(3′-fluoro-[1,1′-biphen-yl]-3-yl)isoxazol-idin-2-yl)pyrim-idin-4-yl)amino)-5-methoxyphenyl)-2,6-dimethylpiper-azine-1-carboxylate] gave a GI50 of 0.05 to 0.5 µM.
Compound C=CC(=O)Nc1cc(Nc2cc(N3OCC[C@@H]3c3cccc(-c4cccc(F)c4)c3)ncn2)c(OC)cc1N1C[C@@H](C)N[C@@H](C)C1 [Example 329, N-(2-((3S,5R)-3,5-dimethyl-piperazin-1-yl)-5-((6-((R)-3-(3′-fluoro-[1,1′-bi-phenyl]-3-yl)-isoxazolidin-2-yl)pyrimidin-4-yl)amino)-4-meth-oxyphenyl)acryl-amide] has a GI50 of under 0.05 µM.
With C=CC(=O)Nc1cc(Nc2cc(N3OCC[C@@H]3c3cccc(-c4cccc(C#N)c4)c3)ncn2)c(OC)cc1N1CCN(C)CC1 [Example 330, (R)-N-(5-((6-(3-(3′-cyano-[1,1′-biphenyl]-3-yl)-isoxazolidin-2-yl)-pyrimidin-4-yl)-amino)-4-methoxy-2-(4-methylpiper-azin-1-yl)phenyl)-acrylamide] the GI50 was under 0.05 µM.
In the case of C=CC(=O)Nc1cc(Nc2cc(N3OCC[C@@H]3c3cccc(-c4ccc(OC)nc4)c3)ncn2)c(OC)cc1N1CCN(C)[C@@H](C)C1 [Example 331, N-(2-((S)-3,4-dimethylpiperazin-1-yl)-4-methoxy-5-((6-((R)-3-(3-(6-methoxypyridin-3-yl)phenyl)isoxazol-idin-2-yl)pyrim-idin-4-yl)amino)-phenyl)acrylamide], the GI50 is reported as under 0.05 µM.
C=CC(=O)Nc1cc(Nc2cc(N3OCC[C@@H]3c3cccc(-c4ccc(C(F)(F)F)cc4)c3)ncn2)c(OC)cc1N1CCN(C)CC1 [Example 332, (R)-N-(4-methoxy-2-(4-methylpiper-azin-1-yl)-5-((6-(3-(4′-(trifluoro-methyl)-[1,1′-bi-phenyl]-3-yl)-isoxazolidin-2-yl)-pyrimidin-4-yl)-amino)phenyl)-acrylamide] was tested, and the GI50 was 0.05 to 0.5 µM.
In the case of C=CC(=O)Nc1cc(Nc2cc(N3OCC[C@@H]3c3cccc(-c4ccc(C#N)cc4)c3)ncn2)c(OC)cc1N1CCN(C)CC1 [Example 333, (R)-N-(5-((6-(3-(4′-cyano-[1,1′-biphenyl]-3-yl)-isoxazolidin-2-yl)-pyrimidin-4-yl)-amino)-4-methoxy-2-(4-methylpiper-azin-1-yl)phenyl)-acrylamide], the GI50 is reported as under 0.05 µM.
C=CC(=O)Nc1cc(Nc2cc(N3OCC[C@@H]3c3cccc(C(=O)Nc4ccccc4)c3)ncn2)c(OC)cc1N1CCN(C)CC1 [Example 334, (R)-3-(2-(6-((5-acrylamido-2-meth-oxy-4-(4-methyl-piperazin-1-yl)-phenyl)amino)pyr-imidin-4-yl)isox-azolidin-3-yl)-N-phenylbenzamide] was tested, and the GI50 was under 0.05 µM.
